US20220162559A1, “MYOCARDIAL ORGANOIDS AND METHODS OF MAKING AND USES THEREOF” (CLEMSON UNIVERSITY RESEARCH FOUNDATION, priority 2018, published 2022)

Assays:
Format in all cases: cell-based, human
[1] = test system: cardiac infarct organoids; experiment: Contraction analysis of beating organoids (contraction amplitude, beat rate), infarct organoids
Method: For the cardiac infarction protocol, microtissues (about150 μm radius on D0) were placed in a hypoxia chamber within the incubator at about 10% O2 with 1 μM of norepinephrine (NE, A7257, Sigma) after 4 days of pre-culture. Media was changed with fresh NE every 2 days for the length of the experiment (10 days). For extended validation studies, 20 ng/ml of human recombinant transforming growth factor beta 1 (TGF-β1, ab50036, Abcam, Cambridge, UK), 10 nM of JQ1 (SML1524, Sigma), and 2 ng/ml of human recombinant vascular endothelial growth factor (VEGF, CC-4114A, Lonza) was added to the media every 2 days for infarct organoids for the length of the experiment (10 days).
(§1) Videos of spontaneously beating spheroids from each group were recorded immediately out of the incubator (to reduce temperature induced changes in beating) for each condition using a Carl Zeiss Axiovert A1 Inverted Microscope and Zen 2011 software (Zeiss, Gottingen, Germany). Threshold edge-detecting in ImageJ software (NIH—US National Institutes of Health) was used on high contrast spheroid picture series and graphed to realize beating profiles of fractional area change, from which contraction amplitude was calculated. Contraction amplitudes were calculated as the percent change in fractional area change amplitude between contraction and relaxation. Beat rate was calculated as the number of beats per second.

[2] = test system: control cardiac organoids; experiment: Contraction analysis of beating organoids (contraction amplitude, beating), control organoids
Source text: Non-adhesive agarose hydrogel molds were used as microtissue fabrication molds made from commercial master micro-molds from Microtissues, Inc (Providence, R.I.). Working cell suspensions of each cell type were used at about 4.0×10^6 cells/ml to make organoid cell ratio mixtures of about 50% hiPSC-CMs and about 50% non-myocyte (4:2:1 ratio of FBs, HUVECs, hADSCs, respectively) and mixed with 1 volume media for a final concentration of about 2.0×10^6 cells/ml. hiPSC-CM only spheroids were fabricated using 100% hiPSC-CMs at a final concentration of about 2.0×10^6 cells/ml. Approximately 75 μl of the cell suspension was pipetted into each agarose mold. […]
as §1

[3] = test system: cardiac infarct organoids; experiment: TUNEL apoptotic staining of organoid sections; settings: 1 μM, 48 hours of exposure
Method: The Roche In Situ Cell Death Detection Kit (Sigma) was used to visualize apoptotic cells in frozen sections of cardiac organoids based on the Roche protocol. Briefly, cardiac organoid frozen sections were fixed with 4% paraformaldehyde in PBS for 20 min at room temperature. Following washing in PBS for 30 minutes, samples were incubated in a permeabilization solution (0.1% Triton X-100 and 0.1% sodium citrate in PBS) for 2 minutes on ice. Then 50 μl of the TUNEL reaction mixture were added to samples and incubated at 37° C. for 1 hr. After washing in PBS (2 times at 5 min), nuclei were counterstained with DAPI (Molecular Probes/Invitrogen) diluted in PBS for 15 min at ambient temperature. Following the final wash procedure (PBS, 2 times at 5 min), glass cover slips were added to the slides using Fluoro-Gel (Electron Microscopy Sciences). TCS SP5 AOBS laser scanning confocal microscope (Leica Microsystems) was used for imaging.

[4] = test system: cardiac infarct organoids; experiment: Immunofluorescent staining of organoid sections (vimentin, alpha sarcomeric actinin, αSMA, collagen), infarct organoids
Method: (§2) Freshly collected organoids were flash frozen in Tissue-Tek OCT compound (Sakura, Torrance, Calif.). Embedded spheroids were cryosectioned into 7 μm thickness layers onto glass slides for immunofluorescence staining. The sections were fixed with pre-cooled acetone (−20° C.) for 10 min. After washing (2 times at 5 min) in PBS with 0.1% Triton X-100 (PBST) (Sigma), blocking buffer was made with 10% serum corresponding to host species of secondary antibody in PBST and added to sections for 1 hr at room temperature. Sections were incubated with primary antibody diluted in PBST (1:200) overnight at 4° C. or 2 hrs at room temperature: mouse anti-alpha smooth muscle actin (A5228, Sigma), mouse anti-alpha sarcomeric actinin (ab9465, Abcam), rabbit anti-collagen type I (ab34710, Abcam), rabbit anti-vimentin (ab92547, Abcam), rabbit anti-von Willebrand factor (ab6994, Abcam). After washing in PBST (2 times at 5 min), sections were incubated with complement secondary antibodies or conjugated primary antibodies diluted in PBST for 1 hr at room temperature: Alexa Fluor 488 phalloidin (A12379, Thermo), goat anti-mouse Alexa Fluor 546 (A1103, Thermo), goat anti-rabbit Alexa Fluor 647 (111-605-144, Jackson ImmunoResearch, West Grove, Pa.). After washing in PBST (2 times at 5 min), nuclei were counterstained with DAPI (Molecular Probes/Invitrogen, Eugene, Oreg.) diluted in PBST for 15 min at room temperature. Following the final wash procedure (PBST, 2 times at 5 min), glass cover slips were added using Fluoro-Gel (Electron Microscopy Sciences, Hatfield, Pa.) and stored in 4° C. until imaging. TCS SP5 AOBS laser scanning confocal microscope (Leica Microsystems, Inc., Exton, Pa.) was for imaging. Vimentin radial density was calculated using the Radial Profile ImageJ plugin and normalized to radius equal to 1. Each analysis consisted of high resolution images at 400× total magnification of cross sections of different organoids.

[5] = test system: control cardiac organoids; experiment: Immunofluorescent staining of organoid sections (vimentin), control organoids; settings: 48 hrs of exposure
Method: as §2, with “After washing in PBST (2 times at 5 min), nuclei were counterstained with DAPI (Molecular Probes/Invitrogen, Eugene, Oreg.) diluted in PBST for 15 min at room temperature. Following the final wash procedure (PBST, 2 times at 5 min), glass cover slips were added using Fluoro-Gel (Electron Microscopy Sciences, Hatfield, Pa.) and stored in 4° C. until imaging. TCS SP5 AOBS laser scanning confocal microscope (Leica Microsystems, Inc., Exton, Pa.) was for imaging.” left out, “Each analysis consisted of high resolution images at 400× total magnification of cross sections of different organoids.” left out

hiPSC-CMs = experiment: 2D hiPSC-CM culture with in vitro infarction protocol and DOX; settings: hypoxic culture (1%) with 1 μM NE 2 days prior to 2 days DOX treatment
Source text: As a control, we performed 2D studies using hiPSC-CMs with DOX to evaluate the combined effects of an in vitro infarction protocol and DOX on hiPSC-CMs. […] Nearly 100% of cells death was found for hiPSC-CMs after 4 days of the same hypoxic culture using hiPSC-CM media with galactose but no glucose, which has been attributed to the lack of glucose in the hiPSC-CM media. In addition, extended culture of 2D hiPSC-CMs in organoid media to mimic prolonged organoid infarction protocol led to minimal and irregular hiPSC-CM contractile behavior accompanied with the reduction of αSA+ cells. In contrast to the inherent difficulties of using 2D hiPSC-CM culture systems to model post-MI responses, human infarct organoids provide a robust, biomimetic […] tissue-level context to evaluate the effects of DOX on the post-MI cardiac tissues.

[6] = test system: cardiac infarct organoids; experiment: Mechanical testing using micropipette aspiration (elastic modulus)
Method: A micropipette aspiration was performed in media similarly to previous studies using a custom-built fluid reservoir to generate a fixed pressure of 40 cm H2O (about 3.9 kPa) in pulled micropipette to apply the suction force on test organoids.^23,24 Validation and stability of pressure changes were confirmed using an in-line 5 kPa 2-port pressure transducer with about 1 Pa sensitivity (Honeywell, Morristown, N.J.). Micropipettes were pulled to a final inner diameter of approximately 40-60 μm. Prior to and during testing, organoids were soaked in a 30 mM solution of 2,3-butanedione monoxime (BDM) (Sigma) in media for 5-10 min to eliminate contractions to reduce the effect of contractile status on tissue stiffness. Pressure was applied to the organoid surface and pictures were recorded until reaching equilibrium deformation (about 5 min) (FIG. 2F). Under the homogeneous half-space model assumptions^23, the change in length (L) from pre-deformation to equilibrium deformation was used to calculate the elastic modulus according the previously established relationship: E=3aΔp/2πL Φ(η), where E is elastic modulus, a is the inner micropipette radius, Δp is the applied pressure, Φ( ) is the wall function (under punch model assumptions), and η is the wall parameter.^24,25

[7] = test system: cardiac infarct organoids; experiment: Calcium transient imaging with two-photon light sheet microscope (beating synchronization)
Source text: To functionally interpret the transcriptomic shifts in cardiomyocyte calcium handling and arrhythmogenesis, a two-photon, laser-scanning, light sheet (2PLS) microscope was used that allowed for deeper tissue penetration with high-speed imaging (50 frames/sec) and orthogonal selected plane (about 4 μm thickness) illumination.^27 Given its strength for in situ imaging, the 2PLS microscope allowed for the visualization of calcium handling in the interior regions of 3D cardiac microtissues to study calcium handling and arrhythmogenicity across the organoids. Organoids were fabricated with GCaMP6-labeled hiPSC-CMs and calcium transient amplitudes (ΔF/F0) were measured from “cell-sized” regions of interest (ROIs) (representing individual cardiomyocytes) inside organoids. […] In particular, imaging and calcium transient profiles of synchronized edge and interior cardiomyocyte ROIs from human induced pluripotent stem cell-derived-cardiomyocyte (hiPSC-CM) spheroids were cultured in the cardiac organoid infarction protocol.

[8] = 10 nM added to infarct organoid culture
[9] = 20 ng/ml added during infarction protocol

**Q.** With COc1cccc2c1C(=O)c1c(O)c3c(c(O)c1C2=O)C[C@@](O)(C(=O)CO)C[C@@H]3O[C@H]1C[C@H](N)[C@H](O)[C@H](C)O1 [DOX, doxorubicin] as the molecule, how does the IC50 ([1]; Homo sapiens, infarct organoids, 48 hrs of exposure starting on D10) read?
**A.** ~150 nM

**Q.** What about the “concentration at cessation of beating” value ([1]; infarct organoids) of the same molecule?
**A.** 1 µM

**Q.** What about the “concentration at cessation of beating” value [2] of the same molecule?
**A.** 10 µM

**Q.** And the IC50 ([2]; Homo sapiens, 48 hrs of exposure starting on D10)?
**A.** ~370 nM

**Q.** What about the “apoptosis (TUNEL analysis)” value [3] of the same molecule?
**A.** significantly increased apoptosis

**Q.** What about the “dose inducing an increase in vimentin+ density” value ([4]; infarct organoids, 48 hrs of exposure) of the same molecule?
**A.** 0.1 µM

**Q.** And the “αSA staining relative to vehicle control (sarcomeric organization)” value ([4]; interior of infarct organoids, 0.1 μM)?
**A.** significantly decreases

**Q.** What about the “dose inducing an increase in vimentin+ density” value [5] of the same molecule?
**A.** 1.0 µM

**Q.** What about the “viability and contractile structures/organization of 2D hiPSC-CMs” value (hiPSC-CMs) of the same molecule?
**A.** exacerbation of DOX-induced reduction in viability and reduction in contractile structures/organization

**Q.** How did the “vimentin+ density at the infarct organoid edge” value [4, 8] turn out when Cc1sc2c(c1C)C(c1ccc(Cl)cc1)=N[C@@H](CC(=O)OC(C)(C)C)c1nnc(C)n1-2 [JQ1] was run?
**A.** significantly reduced

**Q.** What about the “organoid stiffness (elastic modulus)” value [6, 8] of the same molecule?
**A.** significant decrease in stiffness

**Q.** What about the “unsynchronized beating of infarct organoids” value ([7]; 10 nM) of the same molecule?
**A.** reduction of unsynchronization

**Q.** How did the beat rate ([1]; 10% O2 with 1 μM for 10 days, versus control organoids) turn out when NC[C@H](O)c1ccc(O)c(O)c1 [NE, norepinephrine] was run?
**A.** increase in beat rate

**Q.** With COCCc1ccc(OCC(O)CNC(C)C)cc1 (centres unmarked) [metoprolol] as the molecule, how does the “NE-induced increase in beat rate” value ([1]; infarct organoids cultured with 10 μM, D10) read?
**A.** reversed

**Q.** “TGF-β1: human recombinant transforming growth factor beta 1, pro-fibrotic stimulus” was tested. Which “collagen organization and presence of αSMA+ myofibroblast-like cells” value [4, 9] did it give?
**A.** further increased

**Q.** What about the “organoid stiffness (elastic modulus)” value [6, 9] of the same molecule?
**A.** significant increase in organoid stiffness

**Q.** VEGF was tested. Which “unsynchronized beating of infarct organoids” value ([7]; 2 ng/ml) did it give?
**A.** reduction of unsynchronization
